According to ChEMBL document CHEMBL1667837, “Structure and property based design, synthesis and biological evaluation of γ-lactam based HDAC inhibitors” (Bioorg Med Chem Lett, 2011):
pIC50: −log10 of the molar value.

Columns and labels:
[1] = Inhibition of HDAC by fluorescence assay
ACHN = test: Cytotoxicity against human ACHN cells; format: functional
HCT-15 = test: Cytotoxicity against human HCT15 cells; format: functional
MDA-MB-231 = test: Cytotoxicity against human MDA-MB-231 cells; format: functional
NCI-H23 = test: Cytotoxicity against human NCI-H23 cells; format: functional
LOX IMVI = test: Cytotoxicity against human LOXIMVI cells; format: functional
PC-3 = test: Cytotoxicity against human PC3 cells; format: functional
[2] = Inhibition of HDAC assessed as increase of histone H4 acetylation
[3] = Inhibition of HDAC assessed as increase of histone H3 acetylation
[4] = Apparent permeability across human Caco2 cells; format: ADME, cell-based; settings: Caco-2
[5] = Metabolic stability in ICR mouse liver microsomes assessed as compound remaining at 1 uM after 60 mins in absence of NADPH; format: ADME, Microsome; settings: read-out: Stability
[6] = Metabolic stability in ICR mouse liver microsomes assessed as compound remaining at 1 uM after 60 mins in presence of buffer; format: ADME, Microsome; settings: read-out: Stability
[7] = Metabolic stability in ICR mouse liver microsomes assessed as compound remaining at 1 uM after 60 mins in presence of NADPH; format: ADME, Microsome; settings: read-out: Stability
NUGC-3 = test: Cytotoxicity against human NUGC3 cells; format: functional

Row | pIC50 [1] | inhibition [2] | inhibition [3] | Papp [4] [×10⁻⁶ cm/s] | remaining at 1 h, 1 µM [5] [%] | remaining at 1 h, 1 µM [6] [%] | remaining at 1 h, 1 µM [7] [%] | SMILES | GI50 (ACHN) [µM] | GI50 (HCT-15) [µM] | GI50 (MDA-MB-231) [µM] | GI50 (NCI-H23) [µM] | GI50 (LOX IMVI) [µM] | GI50 (PC-3) [µM] | GI50 (NUGC-3) [µM]
1 | 6.10 | – | – | – | – | – | – | O=C(CCC1=CCN(Cc2ccccc2)C1=O)NO | 30 | 30 | 4.73 | 30 | 30 | 30 | –
2 | – | Dose-dependent effect | Dose-dependent effect | – | – | – | – | CC(/C=C/C(=O)NO)=C\[C@@H](C)C(=O)c1ccc(N(C)C)cc1 | – | – | – | – | – | – | –
3 | 6.46 | – | – | – | – | – | – | O=C(CCC1=CCCN(CCc2ccccc2)C1=O)NO | 7.76 | 8.16 | 1.62 | 30 | 5.84 | 9.84 | –
4 | 6.92 | – | – | – | – | – | – | O=C(CCC1=CCN(CCc2ccccc2)C1=O)NO | 1.08 | 5.37 | 0.99 | 4.29 | 30 | 4.43 | –
5 | 6.57 | – | – | 17.5 | – | – | – | O=C(CCC1=CCCN(CCCc2ccccc2)C1=O)NO | – | – | – | – | – | 6.98 | –
6 | 6.82 | – | – | – | – | – | – | O=C(CCC1=CCN(Cc2ccc3ccccc3c2)C1=O)NO | 1.39 | 3.54 | 1.22 | 5.19 | 7.98 | 4.88 | –
7 | 7.40 | – | – | 19.1 | 31 | 99.1 | 10.3 | O=C(CCC1=CCCN(CCc2ccc3ccccc3c2)C1=O)NO | 0.61 | 0.79 | 0.45 | 0.54 | 0.56 | 0.56 | 0.42
8 | 6.44 | – | – | – | 15.1 | – | 3.9 | O=C(CCC1=CCN(CCc2cccc3ccccc23)C1=O)NO | 6.41 | 6.78 | 4.76 | 5.13 | 3.71 | 5.76 | 5.23
